According to patent US8716246B2, “Azuvirin peptides” (The Regents of the University of California, priority 2011, dated 2014):
“Also recorded” adds a separate entry of the source. Bridge positions count the residues as written; N and C are the ends. Square brackets hold non-standard residues; d marks the D form. Ends that are not written are not given here. Peptide text beside a SMILES is read from it. * marks the point of attachment. Oic = O=C(O)[C@@H]1C[C@@H]2CCCC[C@@H]2N1; Cha = N[C@@H](CC1CCCCC1)C(=O)O; Tle = CC(C)(C)[C@H](N)C(=O)O; Nicotinoyl = O=C(c1cccnc1)*; Acm = CC(=O)NC*

Assays:
[1] = system: Lewis lung carcinoma (LLC); test: Artificial metastasis model: i.v. Lewis lung carcinoma plus local thoracic irradiation, lung tumor nodules counted; format: in vivo, C57BL/6 mice; settings: for tumor colonies lower / radiation efficacy improved versus radiation alone: Example 1: 500 μg (~10 mg/kg) total i.p. in 4 daily doses 60 min before 4 Gy thoracic irradiation, equimolar controls, nodules day 14; for radiosensitizing effect in artificial metastasis model (in words): with radiation therapy (4 x 4 Gy), peptide or equimolar nicotinamide i.p. from day 4 after i.v. LLC
Experimental: (§1) The AzV-36-Nic conjugate was tested in vivo for its ability to radiosensitize Lewis lung carcinoma (LCC) in an artificial metastasis model. Briefly, C57BL/6 mice (8 weeks old) were intravenously injected with 5×10^5 cells of syngeneic LLC. Various treatments were initiated 4 days later, after cancer engraftment. In general, each animal received intraperitoneally a total of 500 μg (˜10 mg/kg) of peptide in 4 daily doses 60 mins before local thoracic irradiation (4 Gy). Animals were sacrificed on the 14th day of the experiment and lung tumor nodules were counted.
as §1, with “Animal experiments.” for “The AzV-36-Nic conjugate was tested in vivo for its ability to radiosensitize Lewis lung carcinoma (LCC) in an artificial metastasis model.”, “min” for “mins”
Animal experiments. C57BL/6 gnotobiotic mice (8 weeks old) were obtained from the UCLA AALAC accredited Department of Radiation Oncology Facility and intravenously injected with 5×10^5 cells of syngeneic LLC. Various treatments were initiated 4 days later, after cancer engraftment. In general, each animal received intraperitoneally a total of 500 μg (˜25 mg/kg) of peptide (or equimolar amount of nicotinamide) in 4 daily doses 60 min before local thoracic irradiation (0 or 4 Gy, total dose: 4.4=16 Gy) that was delivered using an Atomic Energy of Canada cesium gamma irradiator with a dose rate of approximately 0.6 Gy/min with the rest of the body shielded. Prior to irradiation animals were anesthetized by intraperitoneal injection of ketamine/xylazine mixture. Animals were sacrificed on the 14th day of the experiment and lung tumor nodules were counted. All experiments were approved by the UCLA Animal Care and Use Committee and conformed to local and national guidelines.

rhEphA2 = rhEphA2 (Homo sapiens, UniProt P29317); test: SPR binding to immobilized rhEphA2 (Biacore 3000); parameters: purchased R&D Systems, Inc., Minneapolis, Minn; settings: SPR; averaged from at least 4 independent experiments; read-out: KD ± SEM, rhEphA2
Experimental: (§2) Binding to selected ephrin receptors was measured by surface plasmon resonance on a Biacore3000 instrument. Commercially available ephrin receptors: EphA2, EphB2 and EphB4 (R&D Systems) were immobilized on a CM-5 chip by amine coupling and tested peptides were passed over a chip surface as analytes.
(§3) Binding studies. Binding studies were performed by surface plasmon resonance (SPR) on a BIAcore 3000 system (BiaCore AB, Piscataway, N.J.). BIAcore CM5 sensor chips were utilized in all experiments. Binding studies were performed in HBS-EP running buffer (pH=7.4) containing 10 mM HEPES, 150 mM NaCl, 3 mM EDTA, and 0.005% polysorbate 20. Commercially available ephrin receptors: EphA2, EphB2 and EphB4 (R&D Systems, Inc., Minneapolis, Minn.) were immobilized on a CM5 sensor chip using the amine coupling method. The chip was activated by mixing 400 mM N-ethyl-N-(3-dimethylaminopropyl)-carbodiimide hydrochloride and 100 mM N-hydroxysuccinimide. Residual reactive groups on the chip surface were blocked using 1.0 M ethanolamine/HCl (pH=8.5). The flow cell-1 chip, which served as a control, lacked immobilized protein but was treated with N-ethyl-N-(3-dimethylaminopropyl)-carbodiimide hydrochloride, N hydroxysuccinimide, and ethanolamine/HCl. Binding signals were corrected for nonspecific binding by subtracting the flow cell-1 signal (blank surface). To regenerate chip surfaces, bound ligands were removed with 10 mM HCl. Data were analyzed with BIAevaluation 4.1 software (Biacore, Piscataway, N.J.).

rhEphB4 = target: T1, rhEphB4 (Homo sapiens, UniProt P54760); test: SPR binding to immobilized rhEphB4 (Biacore 3000); settings: SPR; averaged from at least 4 independent experiments; read-out: KD ± SEM, rhEphB4
T1 construct: purchased R&D Systems, Inc., Minneapolis, Minn
T1 sequence (P54760 16-987): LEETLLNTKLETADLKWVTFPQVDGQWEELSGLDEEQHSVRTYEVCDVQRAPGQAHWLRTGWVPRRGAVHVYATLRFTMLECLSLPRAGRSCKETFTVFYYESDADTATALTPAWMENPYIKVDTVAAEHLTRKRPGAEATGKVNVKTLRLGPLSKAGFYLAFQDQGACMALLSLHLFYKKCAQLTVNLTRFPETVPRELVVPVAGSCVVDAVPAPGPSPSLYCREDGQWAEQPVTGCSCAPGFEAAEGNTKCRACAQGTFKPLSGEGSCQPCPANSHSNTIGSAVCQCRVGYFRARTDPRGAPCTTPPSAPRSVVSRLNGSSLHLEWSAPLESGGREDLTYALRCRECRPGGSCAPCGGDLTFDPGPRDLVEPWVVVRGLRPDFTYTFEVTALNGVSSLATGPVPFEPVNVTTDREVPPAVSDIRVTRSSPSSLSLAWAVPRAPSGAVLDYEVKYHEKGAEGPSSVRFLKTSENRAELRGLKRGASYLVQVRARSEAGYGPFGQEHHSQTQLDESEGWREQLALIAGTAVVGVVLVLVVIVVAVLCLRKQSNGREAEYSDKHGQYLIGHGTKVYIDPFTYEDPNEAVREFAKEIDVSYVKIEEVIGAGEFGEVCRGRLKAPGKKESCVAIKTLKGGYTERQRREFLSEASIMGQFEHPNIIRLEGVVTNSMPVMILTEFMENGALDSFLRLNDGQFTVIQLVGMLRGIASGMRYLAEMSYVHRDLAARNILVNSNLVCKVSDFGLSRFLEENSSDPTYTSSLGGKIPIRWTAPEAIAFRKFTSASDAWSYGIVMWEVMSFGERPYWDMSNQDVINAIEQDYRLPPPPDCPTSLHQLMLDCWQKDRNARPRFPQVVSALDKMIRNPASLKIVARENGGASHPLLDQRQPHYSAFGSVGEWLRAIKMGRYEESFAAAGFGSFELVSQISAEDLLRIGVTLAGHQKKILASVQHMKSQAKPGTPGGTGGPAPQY
Experimental: as §2, §3

rhEphB2/Fc = rhEphB2/Fc (Homo sapiens, UniProt P29323); test: SPR binding to immobilized rhEphB2/Fc (Biacore 3000); parameters: Fc; purchased R&D Systems, Inc., Minneapolis, Minn; settings: SPR; averaged from at least 4 independent experiments; read-out: KD ± SEM, rhEphB2/Fc
Experimental: as §2, §3

Molecule	tumor colonies lower / radiation efficacy improved versus radiation alone [1]	radiosensitizing effect in artificial metastasis model (in words) [1]	also measured
C[C@@H](O)[C@@H]1NC(=O)[C@H](CCCNC(=N)N)NC(=O)[C@H](Cc2c[nH]cn2)NC(=O)[C@@H](CCCNC(=N)N)NC(=O)[C@@H]2C[C@@H]3CCCC[C@@H]3N2C(=O)[C@H](CC2CCCCC2)NC(=O)[C@H](C(C)(C)C)NC(=O)[C@@H](NC(=O)[C@H](CC2CCCCC2)NC(=O)[C@H](CC2CCCCC2)NC(=O)[C@@H](CCCCN)NC(=O)[C@@H](N)Cc2ccc(O)cc2)CSSC[C@@H](C(=O)N[C@H](CCCCN)C(N)=O)NC(=O)[C@H](CC2CCCCC2)NC1=O [AzV36, Yk-Cha-Cha-Cys-Tle-Cha-Oic-rHRT-Cha-Cys-k-CONH] (H-Y[dK][Cha][Cha]C[Tle][Cha][Oic][dR]HRT[Cha]C[dK]-NH2; disulfide 5-14; N-terminus assumed)	1.3 fold		Kd (rhEphA2): 126 ± 11 nM; Kd (rhEphB4): 106 ± 15 nM; Kd (rhEphB2/Fc): 164 ± 11 nM
CC(=O)NCSC[C@H](NC(=O)[C@H](CC1CCCCC1)NC(=O)[C@H](CC1CCCCC1)NC(=O)[C@@H](CCCCN)NC(=O)[C@@H](N)Cc1ccc(O)cc1)C(=O)N[C@H](C(=O)N[C@@H](CC1CCCCC1)C(=O)N1[C@H](C(=O)N[C@H](CCCNC(=N)N)C(=O)N[C@@H](Cc2c[nH]cn2)C(=O)N[C@@H](CCCNC(=N)N)C(=O)N[C@H](C(=O)N[C@@H](CC2CCCCC2)C(=O)N[C@@H](CSCNC(C)=O)C(=O)N[C@H](CCCCN)C(N)=O)[C@@H](C)O)C[C@@H]2CCCC[C@@H]21)C(C)(C)C [AzV36-L] (H-Y[dK][Cha][Cha]C(Acm)[Tle][Cha][Oic][dR]HRT[Cha]C(Acm)[dK]-NH2; N-terminus assumed)		no or minimal radiosensitizing effect; also recorded: only marginally improved radiation efficacy; also recorded: ineffective	
NC(=O)c1cccnc1 [nicotinamide, reference compound]		no or minimal radiosensitizing effect; also recorded: only marginally improved radiation efficacy	radiosensitizing effect in artificial metastasis model (in words) ([1]; listed as Nic): ineffective
AzV-36-Nic: Example 1: AzV-36 conjugated with nicotinic acid via amide bond; linear, 15 residues; probably AzV36-NicL (Y[dK](Nicotinoyl)[Cha][Cha]C[Tle][Cha][Oic][dR]HRT[Cha]C[dK]-NH2; not fully specified (bridges); printed as YkNic-Cha-Cha-Cys-Tle-Cha-Oic-rHRT-Cha-Cys-k-CONH; cysteine pairing not given here)	3-10 fold		
